Earlier results, collected in article PMC5646416 (Journal of clinical pharmacy and therapeutics, 2017).

Details: single-dose pharmacokinetic studies

**Q.** For CCC(C)(C)C(=O)O[C@H]1C[C@@H](C)C=C2C=C[C@H](C)[C@H](CC[C@@H](O)C[C@@H](O)CC(=O)O)[C@H]21 [simvastatin acid], which “AUC higher in rs4149056 CC homozygotes than in rs4149056 TT homozygotes” value (shortened to “AUC higher”) is on record?
**A.** 221%

**Q.** With CC[C@H](C)C(=O)O[C@H]1C[C@H](O)C=C2C=C[C@H](C)[C@H](CC[C@@H](O)C[C@@H](O)CC(=O)O)[C@H]21 [pravastatin] as the molecule, how does the “AUC higher” value read?
**A.** 57–130%

**Q.** With CC(C)c1nc(N(C)S(C)(=O)=O)nc(-c2ccc(F)cc2)c1/C=C/[C@@H](O)C[C@@H](O)CC(=O)O [rosuvastatin] as the molecule, how does the “AUC higher” value read?
**A.** 62–117%

**Q.** For O=C(O)C[C@H](O)C[C@H](O)/C=C/c1c(C2CC2)nc2ccccc2c1-c1ccc(F)cc1 [pitavastatin], which “AUC higher” value is on record?
**A.** 162–191%
